# Literature values as cited in patent US6406529B1, “Method of reducing dentin sensitivity and compositions therefor” (MCG Research Institute, priority 1998, dated 2002).
# Settings: 3% w/v applied to dentin; in vitro and in vivo
structure (smiles),measurement,value
O=C([O-])C(=O)O.[K+] [monopotassium-monohydrogen oxalate],Hydraulic conductance of dentin,reduced
